Measured values reported in ChEMBL document CHEMBL5608163, “Structure modification of anoplin for fighting resistant bacteria” (Eur J Med Chem, 2024).
≈ marks a conversion by molar mass, not a printed value. Peptide text beside a SMILES is read from it. * marks the point of attachment. Undecanoyl = CCCCCCCCCCC(=O)*; Nonanoyl = CCCCCCCCC(=O)*

Legend:
[1] = tested on: Mycolicibacterium smegmatis; assay: Antibacterial activity against Mycobacterium smegmatis mc2 155 assessed as bacterial growth inhibition; format: functional
[2] = tested on: Bacillus subtilis; assay: Antibacterial activity against Bacillus subtilis assessed as bacterial growth inhibition; format: functional
[3] = tested on: Pseudomonas aeruginosa; assay: Antibacterial activity against Pseudomonas aeruginosa PAO1 assessed as bacterial growth inhibition; format: functional
[4] = tested on: Escherichia coli; assay: Antibacterial activity against Escherichia coli DH5a assessed as bacterial growth inhibition; format: functional
[5] = tested on: Zymomonas mobilis; assay: Antibacterial activity against Zymomonas mobilis ATCC 10988 assessed as bacterial growth inhibition; format: functional
[6] = Hemolytic activity in human erythrocytes measured after 1 hrs by microplate reader analysis; format: toxicity, cell-based, Erythrocyte
[7] = Hemolytic activity in human RBC assessed as hemolysis; format: toxicity, cell-based, Erythrocyte; details: red blood cells
[8] = tested on: Staphylococcus aureus; assay: Antibacterial activity against Staphylococcus aureus ATCC 25923 assessed as reduction in bacterial growth incubated for 24 hrs by serial dilution method; format: functional
[9] = tested on: Escherichia coli; assay: Antibacterial activity against Escherichia coli ATCC 25922 assessed as bacterial growth inhibition measured after 48 hrs by resazurin assay; format: functional
[10] = tested on: Staphylococcus aureus; assay: Antibacterial activity against Staphylococcus aureus; format: functional
[11] = tested on: Escherichia coli; assay: Antibacterial activity against Escherichia coli; format: functional
[12] = tested on: Mycolicibacterium smegmatis; assay: Antimycobacterial activity against Mycobacterium smegmatis mc2 155 assessed as reduction in bacterial cell growth incubated for 24 hrs by resazurin dye based broth microdilution method; format: functional
[13] = tested on: Bacillus subtilis; assay: Antimicrobial activity against Bacillus subtilis assessed as microbial growth inhibition incubated for 24 hrs by broth micro-dilution method; format: functional
[14] = tested on: Escherichia coli; assay: Antibacterial acitivity against Escherichia coli DH5a assessed as bacterial growth inhibition incubated for 24 hrs by broth micro-dilution method; format: functional
[15] = tested on: Zymomonas mobilis; assay: Antibacterial activity against Zymomonas mobilis ATCC 10988 assessed as reduction in bacterial growth incubated for 24 hrs by broth micro-dilution method; format: functional
[16] = Hemolytic activity against human Red blood cells assessed as cell lysis; format: toxicity, cell-based, Erythrocyte

Structure (SMILES): CCCCCCCCCCC(=O)NCC(=O)N[C@@H](CC(C)C)C(=O)N[C@@H](CC(C)C)C(=O)N[C@@H](CCCCN)C(=O)N[C@H](C(=O)N[C@H](C(=O)N[C@@H](CCCCN)C(=O)N[C@@H](CCCNC(=N)N)C(=O)N[C@@H](CC(C)C)C(=O)N[C@@H](CC(C)C)C(N)=O)[C@@H](C)CC)[C@@H](C)CC (Undecanoyl-GLLKIIKRLL-NH2)
- MIC [1]: 33.3 µM (≈ 44.4 µg/mL)
- MIC [2]: 167 µM (≈ 222 µg/mL)
- MIC [3]: 33.3 µM (≈ 44.4 µg/mL)
- MIC [4]: > 167 µM
- MIC [5]: 12.5 µM (≈ 16.7 µg/mL)
- HC50 at 1 h [6]: 56.8 µM

Structure (SMILES): CC[C@H](C)[C@H](NC(=O)[C@H](CCCNC(=N)N)NC(=O)[C@H](CCCCN)NC(=O)[C@H](CC(C)C)NC(=O)[C@H](CC(C)C)NC(=O)CN)C(=O)N[C@@H](CCCCN)C(=O)N[C@H](C(=O)N[C@@H](CC(C)C)C(=O)N[C@@H](CC(C)C)C(N)=O)C(C)C (H-GLLKRIKVLL-NH2)
- HC50 [7]: 69.5 µM
- MIC [8]: 19.1 µM (≈ 22 µg/mL)
- MIC [9]: 19.1 µM (≈ 22 µg/mL)

Structure (SMILES): CCCCCCCCCCC(=O)NCC(=O)N[C@@H](CC(C)C)C(=O)N[C@@H](CCCCN)C(=O)N[C@@H](CCCCN)C(=O)N[C@H](C(=O)N[C@H](C(=O)N[C@@H](CCCCN)C(=O)N[C@@H](CCCCN)C(=O)N[C@@H](CC(C)C)C(=O)N[C@@H](CC(C)C)C(N)=O)[C@@H](C)CC)[C@@H](C)CC (Undecanoyl-GLKKIIKKLL-NH2)
- MIC [1]: 0.42 µM (≈ 0.555 µg/mL)
- MIC [2]: 5.83 µM (≈ 7.7 µg/mL)
- MIC [3]: 16.7 µM (≈ 22 µg/mL)
- MIC [4]: 25 µM (≈ 33 µg/mL)
- MIC [5]: 12.5 µM (≈ 16.5 µg/mL)
- HC50 at 1 h [6]: 62.9 µM

Structure (SMILES): CC[C@H](C)[C@H](NC(=O)[C@H](CCCNC(=N)N)NC(=O)[C@H](CCCCN)NC(=O)[C@H](CC(C)C)NC(=O)[C@H](CC(C)C)NC(=O)CN)C(=O)N[C@@H](CCCCN)C(=O)N[C@@H](Cc1ccccc1)C(=O)N[C@@H](CC(C)C)C(=O)N[C@@H](CC(C)C)C(N)=O (H-GLLKRIKFLL-NH2)
- HC50 [7]: 326 µM
- MIC [8]: 6.7 µM (≈ 8.04 µg/mL)
- MIC [9]: 6.7 µM (≈ 8.04 µg/mL)

Structure (SMILES): CC[C@H](C)[C@H](NC(=O)[C@H](CCCCN)NC(=O)[C@@H](NC(=O)[C@H](CCCNC(=N)N)NC(=O)[C@H](CCCCN)NC(=O)[C@H](CC(C)C)NC(=O)[C@H](CC(C)C)NC(=O)CN)[C@@H](C)CC)C(=O)N[C@@H](CC(C)C)C(=O)N[C@@H](CC(C)C)C(N)=O (H-GLLKRIKILL-NH2)
- HC50 [7]: 81.8 µM
- MIC [8]: 12 µM (≈ 14 µg/mL)
- MIC [9]: 7.7 µM (≈ 8.97 µg/mL)

Structure (SMILES): CC[C@H](C)[C@H](NC(=O)[C@H](Cc1ccccc1)NC(=O)[C@H](CCCCN)NC(=O)[C@H](CC(C)C)NC(=O)[C@H](CC(C)C)NC(=O)[C@@H](N)CCCCN)C(=O)N[C@@H](CCCCN)C(=O)N[C@H](C(=O)N[C@@H](CC(C)C)C(=O)N[C@@H](CC(C)C)C(N)=O)[C@@H](C)O (H-KLLKFIKTLL-NH2)
- HC50 [7]: 295 µM
- MIC [10]: 5.8 µM (≈ 7.05 µg/mL)
- MIC [11]: 2.5 µM (≈ 3.04 µg/mL)

Structure (SMILES): CCCCCCCCCCC(=O)NCC(=O)N[C@@H](CC(C)C)C(=O)N[C@@H](CC(C)C)C(=O)N[C@@H](CCCCN)C(=O)N[C@H](C(=O)N[C@H](C(=O)N[C@@H](CCCCN)C(=O)N[C@@H](CCCCN)C(=O)N[C@@H](CC(C)C)C(=O)N[C@@H](CC(C)C)C(N)=O)[C@@H](C)CC)[C@@H](C)CC (Undecanoyl-GLLKIIKKLL-NH2)
- MIC [1]: 6.08 µM (≈ 7.94 µg/mL)
- MIC [2]: 26 µM (≈ 34 µg/mL)
- MIC [3]: 34.7 µM (≈ 45.3 µg/mL)
- MIC [4]: > 174 µM
- MIC [5]: 8.68 µM (≈ 11.3 µg/mL)
- HC50 at 1 h [6]: 38.7 µM

Structure (SMILES): CC[C@H](C)[C@H](NC(=O)[C@H](Cc1ccccc1)NC(=O)[C@H](CCCCN)NC(=O)[C@H](CC(C)C)NC(=O)[C@H](CC(C)C)NC(=O)[C@@H](N)CCCCN)C(=O)N[C@@H](CCCCN)C(=O)N[C@@H](CCCCN)C(=O)N[C@@H](CC(C)C)C(=O)N[C@@H](CC(C)C)C(N)=O (H-KLLKFIKKLL-NH2)
- MIC [12]: 13.3 µM (≈ 16.5 µg/mL)
- MIC [13]: 35.6 µM (≈ 44.2 µg/mL)
- MIC [14]: 322 µM (≈ 400 µg/mL)
- MIC [15]: 8.9 µM (≈ 11.1 µg/mL)
- HC50 [16]: > 403 µM

Structure (SMILES): CC[C@H](C)[C@H](NC(=O)[C@H](CCCNC(=N)N)NC(=O)[C@H](CCCCN)NC(=O)[C@H](CC(C)C)NC(=O)[C@H](CC(C)C)NC(=O)[C@@H](N)CCCCN)C(=O)N[C@@H](CCCCN)C(=O)N[C@@H](CCCCN)C(=O)N[C@@H](CC(C)C)C(=O)N[C@@H](CC(C)C)C(N)=O (H-KLLKRIKKLL-NH2)
- HC50 [7]: 193 µM
- MIC [10]: 22.4 µM (≈ 28 µg/mL)
- MIC [11]: 29.6 µM (≈ 37.1 µg/mL)

Structure (SMILES): CC[C@H](C)[C@H](NC(=O)[C@@H](NC(=O)[C@H](CCCCN)NC(=O)[C@H](CC(C)C)NC(=O)[C@H](CC(C)C)NC(=O)CN)C(C)C)C(=O)N[C@@H](CCCCN)C(=O)N[C@H](C(=O)N[C@@H](CC(C)C)C(=O)N[C@@H](CC(C)C)C(N)=O)C(C)C (H-GLLKVIKVLL-NH2)
- HC50 [7]: 190 µM
- MIC [10]: 12.8 µM (≈ 14 µg/mL)
- MIC [11]: 25.6 µM (≈ 28 µg/mL)

Structure (SMILES): CCCCCCCCC(=O)NCC(=O)N[C@@H](CC(C)C)C(=O)N[C@@H](CC(C)C)C(=O)N[C@@H](CCCCN)C(=O)N[C@H](C(=O)N[C@H](C(=O)N[C@@H](CCCCN)C(=O)N[C@@H](CCCCN)C(=O)N[C@@H](CC(C)C)C(=O)N[C@@H](CC(C)C)C(N)=O)[C@@H](C)CC)[C@@H](C)CC (Nonanoyl-GLLKIIKKLL-NH2)
- MIC [1]: 15.5 µM (≈ 19.8 µg/mL)
- MIC [2]: 5.43 µM (≈ 6.94 µg/mL)
- MIC [3]: 23.3 µM (≈ 29.7 µg/mL)
- MIC [4]: > 155 µM
- MIC [5]: 7.75 µM (≈ 9.9 µg/mL)
- HC50 at 1 h [6]: > 155 µM

Structure (SMILES): CC[C@H](C)[C@H](NC(=O)[C@H](CCCNC(=N)N)NC(=O)[C@H](CCCCN)NC(=O)[C@H](CC(C)C)NC(=O)[C@H](CC(C)C)NC(=O)[C@@H](N)CCCCN)C(=O)N[C@@H](CCCCN)C(=O)N[C@H](C(=O)N[C@@H](CC(C)C)C(=O)N[C@@H](CC(C)C)C(N)=O)[C@@H](C)O (H-KLLKRIKTLL-NH2)
- HC50 [7]: 29.3 µM
- MIC [10]: > 19.6 µM
- MIC [11]: 19.6 µM (≈ 24 µg/mL)

Structure (SMILES): CC[C@H](C)[C@H](NC(=O)[C@H](CCCNC(=N)N)NC(=O)[C@H](CCCCN)NC(=O)[C@H](CC(C)C)NC(=O)[C@H](CC(C)C)NC(=O)CN)C(=O)N[C@@H](CCCCN)C(=O)N[C@@H](CC(N)=O)C(=O)N[C@@H](CC(C)C)C(=O)N[C@@H](CC(C)C)C(N)=O (H-GLLKRIKNLL-NH2)
- HC50 [7]: 79.2 µM
- MIC [8]: 10.3 µM (≈ 12 µg/mL)
- MIC [9]: 18.9 µM (≈ 22 µg/mL)

Structure (SMILES): CC[C@H](C)[C@H](NC(=O)[C@H](CCCNC(=N)N)NC(=O)[C@H](CCCCN)NC(=O)[C@H](CC(C)C)NC(=O)[C@H](CC(C)C)NC(=O)CN)C(=O)N[C@@H](CCCCN)C(=O)N[C@@H](Cc1c[nH]c2ccccc12)C(=O)N[C@@H](CC(C)C)C(=O)N[C@@H](CC(C)C)C(N)=O (H-GLLKRIKWLL-NH2)
- HC50 [7]: 500 µM
- MIC [8]: 3.2 µM (≈ 3.96 µg/mL)
- MIC [9]: 6.5 µM (≈ 8.05 µg/mL)

Structure (SMILES): CC[C@H](C)[C@H](NC(=O)[C@H](Cc1ccccc1)NC(=O)[C@H](CCCCN)NC(=O)[C@H](CC(C)C)NC(=O)[C@H](CC(C)C)NC(=O)[C@@H](N)CCCNC(=N)N)C(=O)N[C@@H](CCCCN)C(=O)N[C@@H](CCCCN)C(=O)N[C@@H](CC(C)C)C(=O)N[C@@H](CC(C)C)C(N)=O (H-RLLKFIKKLL-NH2)
- MIC [12]: 15.8 µM (≈ 20.1 µg/mL)
- MIC [13]: 31.5 µM (≈ 40 µg/mL)
- MIC [14]: 315 µM (≈ 400 µg/mL)
- MIC [15]: 7.9 µM (≈ 10 µg/mL)
- HC50 [16]: > 394 µM

Structure (SMILES): CCCCCCCCCCC(=O)NCC(=O)N[C@@H](CC(C)C)C(=O)N[C@@H](CC(C)C)C(=O)N[C@@H](CCCCN)C(=O)N[C@@H](CCCCN)C(=O)N[C@H](C(=O)N[C@@H](CCCCN)C(=O)N[C@@H](CCCNC(=N)N)C(=O)N[C@@H](CC(C)C)C(=O)N[C@@H](CC(C)C)C(N)=O)[C@@H](C)CC (Undecanoyl-GLLKKIKRLL-NH2)
- MIC [1]: 86.2 µM (≈ 116 µg/mL)
- MIC [2]: 86.2 µM (≈ 116 µg/mL)
- MIC [3]: 2.58 µM (≈ 3.48 µg/mL)
- MIC [4]: 34.4 µM (≈ 46.3 µg/mL)
- MIC [5]: 4.3 µM (≈ 5.8 µg/mL)
- HC50 at 1 h [6]: 38 µM

Structure (SMILES): CC[C@H](C)[C@H](NC(=O)[C@H](CCCNC(=N)N)NC(=O)[C@H](CCCCN)NC(=O)[C@H](CC(C)C)NC(=O)[C@H](CC(C)C)NC(=O)CN)C(=O)N[C@@H](CCCCN)C(=O)N[C@@H](CC(C)C)C(=O)N[C@@H](CC(C)C)C(=O)N[C@@H](CC(C)C)C(N)=O (H-GLLKRIKLLL-NH2)
- HC50 [7]: 102 µM
- MIC [8]: 6 µM (≈ 6.99 µg/mL)
- MIC [9]: 11.2 µM (≈ 13.1 µg/mL)
